{"source": "patent US20120052544A1", "about": "“E[…] CELLS WITH PSORALENS” (priority 2010, published 2012)", "key": {"[1]": {"system": "Xenopus eggs", "assay": "Enucleation of Xenopus eggs with psoralen and long-wave UV light, then fertilization", "assay_type": "cell-based", "conditions": "for Chromosome Number (Mean ± SD): embryos from eggs treated with psoralen + long-wave UV before fertilization, diploid control 36"}, "[2]": {"system": "Xenopus sperm", "procedure": "(§1) Sperm Enucleation. A small piece of fresh Xenopus testis was macerated with forceps, resuspended in 1×MMR containing 1-50 μM AMT, then filtered through a […] cell strainer (Falcon). The sperm suspension was spread onto a Petri dish then irradiated as described above and used immediately to fertilize fresh eggs. Mouse epididymal sperm were isolated in HTF medium (Quinn, 2000) and not filtered before irradiation.\nKaryotype Analysis. Karyotype analysis was performed using a modified protocol (http:// followed “by faculty.virginia.edu/xtropicalis/KaryotypeXtropicalis.htm”). […] tailbud embryos were incubated in 0.1×MMR containing 10 μM nocodazole for 1-3 hours. The tailbud was bluntly dissected off with sharp needles, incubated in 60% acetic acid for 5 minutes, and squashed onto a Superfrost Plus microscope slide (V WR Scientific) under a coverslip and a lead brick. After 5 minutes, the slide was quick-frozen on a cake of dry ice, the coverslip was prized off with a razor blade, and the squashed tissue was stained with 0.1 μg/ml 4′,6-diamidino-2-phenylindole (DAPI). At least three high quality spreads were counted before assigning a karyotype."}, "[3]": {"system": "Mouse eggs", "conditions": "cultured four days", "procedure": "(§2) Eggs from super-ovulated mice were irradiated for 30 seconds with a handheld 4W UV lamp in the presence of 4-6 μM AMT, then parthenogenetically activated with strontium chloride and cultured in vitro for four days. […] In mouse embryos, however, checkpoints are active during the early cleavage divisions (Liu et al., 2000b; Takai et al., 2000)."}, "[4]": {"system": "Mouse sperm", "conditions": "AMT+UV-treated sperm", "procedure": "as §1, §2"}, "[5]": {"system": "primary MEFs", "procedure": "(§3) Feeder Cell Enucleation. […] Cells were irradiated from above for 30-60 seconds with a 4 W UVGL-25 Mineralite (UVP) using the long-wave setting, holding the lamp as close as possible to the brim of the culture dish with the lid removed. After irradiation cells were washed with PBS. H7/WA07 hESCs (National Stem Cell Bank) were plated on primary MEFs 24 hours later. These MEFs were between passages 2 and 5. For keratinocytes precursor cell culture, the MEFS were trypsinized immediately after treatment and plated with CIN612 cells.\nHuman embryonic stem cells (hESCs) require a feeder layer of mouse embryonic fibroblasts (MEFs) to grow in culture (Thomson et al., 1998). […] The ability of MEFs to support hESC growth declines with time (VIIIa-Diaz et al., 2009)."}, "[6]": {"system": "Mouse J2 3T3 fibroblasts", "conditions": "5 μM AMT and UV light 2 minutes", "procedure": "as §3\nThe human keratinocyte precursor cell line CIN612 is widely used in studies of human papillomavirus (HPV) (Ozbun, 2002). CIN612 cells harbor episomal copies of HPV31b, a subtype that causes cervical cancer. The cells are typically grown on a feeder layer of mouse fibroblasts. Mouse J2 3T3 fibroblasts were treated with 5 μM AMT and UV light for 2 minutes, then trypsinized and plated with CIN612 cells."}, "[7]": {"system": "HeLa cells", "assay": "Effect of psoralen+UV treatment on growth of HeLa cells"}, "[8]": {"conditions": "pigmented male sperm treated with AMT and UV, eggs from albino female"}, "[9]": {"conditions": "5 μM MOP, long wave UV 1 minute, cultured three days"}}, "note": "Where “and” joins values, the source holds several entries; their conditions need not be identical. Equal entries are not always repeated."}
{"smiles": "Cc1oc2c(C)c3oc(=O)cc(C)c3cc2c1CN", "note": "[AMT, 4′-aminomethyl-4, 5′, 8-trimethylpsoralen]", "values": [{"measurement": "Average efficiency of enucleation", "setting": "[1]; 20 different clutches of eggs from different mothers", "value": "87±11", "unit": "%"}, {"measurement": "Embryo development, AMT-only treated eggs", "setting": "[1]; AMT without UV", "value": "normal diploid embryos"}, {"measurement": "DNA content of somatic cells versus cells from untreated eggs", "setting": "[1]; AMT+UV-treated eggs, primary cultures from pools of 20 tadpoles, flow cytometry", "value": "exactly half"}, {"measurement": "Rates of fertilization and development into haploid tadpoles", "setting": "[1]; after psoralen+UV treatment of eggs", "value": "80-100%"}, {"measurement": "Appearance of tadpoles", "setting": "[1]; eggs in 50 μM AMT 5 min, irradiated 5 min, 100 W UV 300-400 nm, then fertilized", "value": "typical haploid appearance"}, {"measurement": "Outcome with shorter irradiation or lower concentrations", "setting": "[1]; eggs irradiated for shorter periods or with lower concentrations of AMT", "value": "abnormal embryos"}, {"measurement": "Haploid embryos expressing GFP", "setting": "[1]; eggs of CMV-GFP(+) female treated with AMT and UV, fertilized with GFP(−) sperm, untreated 63%", "value": "virtually none"}, {"measurement": "Chromosome Number (Mean ± SD)", "setting": "[1]; karyotype analysis", "value": "18 and 18.0 ± 0.0"}, {"measurement": "Concentration providing ideal enucleation conditions", "setting": "[1]; irradiation of eggs for 2-5 minutes", "value": "25 to 50", "unit": "µM"}, {"measurement": "Chromosome number of most surviving abnormal embryos", "setting": "[1]; shorter irradiation or lower AMT concentrations, karyotype analysis", "value": "32-34"}, {"measurement": "Embryo outcome when both sperm and egg were treated", "setting": "[2]; both sperm and egg AMT+UV-treated", "value": "underwent several irregular cleavage divisions before dying during the blastula stage"}, {"measurement": "Chromosome Number (Mean ± SD)", "setting": "[2]; embryos from eggs fertilized with AMT + UV-treated sperm, karyotype analysis", "value": "18 and 18.0 ± 0.0"}, {"measurement": "Appearance of tadpoles", "setting": "[2]; [8]", "value": "typical haploid appearance"}, {"measurement": "Pigmentation of tadpoles", "setting": "[2]; [8]", "value": "all were albino"}, {"measurement": "Effect on efficiency of fertilization", "setting": "[2]; sperm treated with AMT and UV light", "value": "no effect"}, {"measurement": "Efficiency of enucleation", "setting": "[2]; sperm, AMT + UV", "value": "95±3", "unit": "%"}, {"measurement": "Psoralen concentration sufficient to completely destroy the nucleus", "setting": "[2]; sperm, with UV irradiation", "value": 1, "unit": "µM"}, {"measurement": "Embryo outcome, AMT without UV exposure", "setting": "[2]; unless fertilization performed in a darkroom under a safelight", "value": "sometimes gave rise to abnormal embryos"}, {"measurement": "Development of parthenogenetically activated eggs", "setting": "[3]; 4-6 μM AMT, 30 seconds handheld 4W UV lamp", "value": "arrested development at the 1-2 cell stage"}, {"measurement": "Development of eggs treated with AMT only", "setting": "[3]; AMT without UV", "value": "formed complete blastocysts"}, {"measurement": "Cleavage of fertilized zygotes", "setting": "[4]; 20-40% with untreated sperm reached blastocyst", "value": "rarely cleaved even once"}, {"measurement": "Fertilization of mouse eggs in vitro by treated sperm", "setting": "[4]; two pronuclei", "value": "successfully fertilized mouse eggs in vitro"}, {"measurement": "Comparison of colonies with those on gamma-irradiated MEFs", "setting": "[5]; 5 μM AMT, long-wave UV 30 seconds", "value": "indistinguishable from those grown on gamma-irradiated MEFs"}, {"measurement": "Appearance of hESC colonies on treated MEFs", "setting": "[5]; 5 μM AMT, long-wave UV 30 seconds, H7/WA07 hESCs after 5 days", "value": "healthy-appearing hESC colonies with smooth rounded borders"}, {"measurement": "Time after treatment within which plating maintains hESCs undifferentiated", "setting": "[5]; AMT+UV-treated MEFs, noticeable decrease after 8 days", "value": "≤ 6", "unit": "days"}, {"measurement": "Oct3/4 expression of hESCs", "setting": "[5]; on AMT+UV-treated MEFs", "value": "normal amounts"}, {"measurement": "Growth rate of CIN612 cells on psoralen-treated feeders", "setting": "[6]", "value": "the same as on mitomycin-C treated feeders"}, {"measurement": "CIN612 colonies compared with mitomycin C-treated feeders", "setting": "[6]; 3-7 days in culture", "value": "indistinguishable from those grown on mitomycin C-treated feeder cells"}]}
{"smiles": "COc1c2occc2cc2ccc(=O)oc12", "note": "[MOP, 8-methoxypsoralen]", "values": [{"measurement": "Chromosome Number (Mean ± SD)", "setting": "[1]; karyotype analysis", "value": "18.0 ± 0.0"}, {"measurement": "Cell viability", "setting": "[7]; [9]", "value": "80-100%"}, {"measurement": "HeLa cell growth", "setting": "[7]; [9]", "value": "effectively arrested HeLa cell growth"}, {"measurement": "Chk1 phosphorylation, MOP without UV exposure", "setting": "[7]; MOP without UV", "value": "little or no Chk1 phosphorylation"}, {"measurement": "Growth of cells incubated in MOP without UV exposure", "setting": "[7]; MOP without UV", "value": "grew normally"}, {"measurement": "S345-phosphorylated Chk1", "setting": "[7]; MOP+UV-arrested cells, immunoblotting", "value": "high levels"}, {"measurement": "Cell cycle distribution (flow cytometry)", "setting": "[7]; MOP+UV-treated cells", "value": "arrested in S and G2/M phases of the cell cycle"}, {"measurement": "Proliferation in culture", "setting": "[7]; MOP+UV-treated, untreated doubling time close to 24 hours", "value": "did not proliferate"}]}
